Experimental data: patent US8431708B2, “Fluorescent carbazole compounds for cancer diagnosis” (Academia Sinica, priority 2009, dated 2013)

System: MRC-5 human lung normal fibroblast cells
Experiment: Fluorescence intensity as a function of incubation time in normal cells
Type: cell-based
Details: MRC-5 cells
Method: The fluorescence intensity of 3,6-bis(1-methyl-4-vinylpyridinium)carbazole diiode (BMVC) described in Kang et al., J. Chin. Chem. Soc., 2005, 52, 1069-1072 and Compound 3 were measured in CL1-0 lung cancer cells and MRC-5 human lung normal fibroblast cells as a function of incubation time.

In the case of `C[n+]1ccc(C=Cc2ccc3[nH]c4ccc(C=Cc5cc[n+](C)cc5)cc4c3c2)cc1.[I-].[I-]` [BMVC, 3,6-bis(1-methyl-4-vinylpyridinium)carbazole diiode], the “fluorescence in normal cells” value is reported as “weak fluorescence in normal cells”.
